From paper PMC6270205, “Antimicrobial and Selected In Vitro Enzyme Inhibitory Effects of Leaf Extracts, Flavonols and Indole Alkaloids Isolated from Croton menyharthii” (Molecules, 2013) come the findings set out here.

Assay [1] has as its target T1, yeast α-glucosidase (Saccharomyces cerevisiae, UniProt P53341).
T1 construct: purchased Sigma-Aldrich
The experiment in a line: α-Glucosidase inhibitory activity. It is filed as biochemical, Saccharomyces cervisiae. The procedure: All thin layer chromatography analyses were performed at room temperature using pre-coated plates (MERCK, silica gel 60 F254 0.2 thickness). Detection of spots was done by viewing under UV light (254 and 366 nm). Open column chromatography was carried out using silica gel (230-400 mesh) and Sephadex LH-20. Nuclear magnetic resonance (NMR) data were obtained using Bruker spectrometers (400 and 500 MHz). Chemical shifts are expressed in parts per million (ppm).
α-Glucosidase inhibitory activity was determined as previously described by Tao et al. with modifications as detailed by Rengasamy et al.. Briefly, yeast α-glucosidase (0.1 Unit/mL) was dissolved in 0.1 M potassium phosphate buffer (pH 6.8), this was used as the enzyme solution. The control experiment contained the same reaction mixture, but the sample solution was replaced with the same volume of phosphate buffer. […] The determinations were carried out in triplicate. The percentage inhibition (%) was calculated using the following equation: % Inhibition = (Acontrol − Asample)/Acontrol × 100(1) where Acontrol is the absorbance of the control and Asample is the absorbance of the sample. The IC50, which is the concentration of the sample required to inhibit 50% of the enzyme was determined for each sample.

Assay [2] concerns Candida albicans (ATCC 10231). The experiment in a line: Antifungal microdilution bioassay (MIC). It is filed as cell-based. The procedure:
The antifungal activity of the crude methanol extract, fractions and isolated compounds were evaluated against Candida albicans (ATCC 10231) using the micro-dilution assay, modified for an antifungal assay. An overnight fungal culture was prepared in 10 mL yeast malt (YM) broth. Four hundred microliters of the overnight Candida culture were added to 4 mL of sterile saline solution. The absorbance was read at 530 nm and adjusted with sterile saline solution to match that of a […] McFarland standard solution. From this prepared stock, a 1:1000 dilution with sterile YM broth was prepared to give an approximately 10^6 cfu/mL culture. One hundred microlitres of the resuspended (in 70% aqueous acetone) crude extract, fractions (50 mg/mL) or compounds (1 mg/mL) were two-fold serially diluted with sterile distilled water, in duplicate down a 96-well microtitre plate. A similar 2-fold serial dilution of amphotericin B (Sigma, 2.5 mg/mL) was used as a positive control. Water, 70% aqueous acetone and fungal free broth were included as negative/solvent controls. The screening was done in triplicate and repeated twice for each extract, the MIC and MFC values were recorded.
For orientation: Dilution methods test growth across graded concentrations, often in twofold steps.

Assay [3] addresses T2, human recombinant COX-2 enzyme (Homo sapiens, UniProt P35354).
T2 construct: His6 (N); purchased Sigma-Aldrich; host or cells: Baculovirus overexpression system in Sf 21 cells
T2 sequence (P35354 18-604): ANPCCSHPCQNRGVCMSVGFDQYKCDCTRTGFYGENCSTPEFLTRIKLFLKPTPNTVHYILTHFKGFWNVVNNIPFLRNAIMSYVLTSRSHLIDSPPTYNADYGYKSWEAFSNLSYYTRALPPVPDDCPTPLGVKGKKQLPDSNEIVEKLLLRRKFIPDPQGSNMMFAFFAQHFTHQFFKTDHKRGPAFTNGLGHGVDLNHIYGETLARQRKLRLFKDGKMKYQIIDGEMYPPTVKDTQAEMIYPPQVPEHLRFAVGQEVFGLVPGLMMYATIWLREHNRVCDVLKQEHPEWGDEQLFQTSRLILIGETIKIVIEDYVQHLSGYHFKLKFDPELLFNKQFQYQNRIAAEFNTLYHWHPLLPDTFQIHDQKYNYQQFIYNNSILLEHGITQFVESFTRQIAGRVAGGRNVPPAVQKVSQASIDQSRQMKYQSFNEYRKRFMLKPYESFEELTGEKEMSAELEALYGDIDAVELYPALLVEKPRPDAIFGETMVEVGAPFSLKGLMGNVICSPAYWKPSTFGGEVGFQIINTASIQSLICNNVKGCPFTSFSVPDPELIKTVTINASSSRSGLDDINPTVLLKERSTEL
Put plainly: Cyclooxygenase (COX-2) inhibitory bioassay. It is filed as biochemical. Particulars: read-out: COX-2 inhibitory activity level.

For assay [4], the target named is T3, AChE (isolated from electric eels) (Electrophorus electricus, UniProt O42275).
T3 construct: AChE (isolated from electric eels) (type VI-S lyophilized powder); purchased Sigma-Aldrich type VI-S lyophilized powder; host or cells: isolated from electric eels
The experiment in a line: biochemical. The procedure:
Inhibition of AChE by the crude methanol extract, fractions and isolated compounds was done as described by Ellman et al. with some modifications. The acetylcholinesterase enzyme activity was measured by spectrophotometric observation of the increase in a yellow colour produced from thiocholine when it reacts with the dithiobisnitrobenzoate ion. AChE (isolated from electric eels) (type VI-S lyophilized powder) was obtained from Sigma-Aldrich. The assay was carried out in a 96-well microtitre plate. The crude methanol extract, fractions and isolated compounds were at initial concentrations of 10 mg/mL (crude extract and fractions) and 1 mg/mL (pure compounds). The increase in absorbance due to the spontaneous hydrolysis of the substrate was corrected by subtracting the ratio of reaction before adding the enzyme from the rate after adding the enzyme (0.2 U/mL). Percentage of inhibition was calculated by comparing the reaction rates for the sample to the negative control. […] The IC50 values of extracts and compounds were calculated using Graph Pad Prism (version 5.0) statistical software programme for Windows (GraphPad Software Inc.).

Assay [5] concerns Escherichia coli ATCC 11775. Put plainly: Antibacterial microdilution bioassay (MIC). It is filed as cell-based. The note with it: for Antimicrobial MIC E.c.: n = 3. The procedure: (§1) Minimum inhibitory concentration (MIC) values for antibacterial activity of the crude methanol extract, fractions and isolated compounds were determined using the microdilution bioassay in a 96-well (Greiner Bio-one GmbH, Frickenhausen, Germany) microtitre plates. One hundred microlitres of the resuspended (in 70% aqueous acetone) crude extract, fractions (50 mg/mL) or compounds (1 mg/mL) was two-fold serially diluted with sterile distilled water, in duplicate down the microtitre plate for each of the four bacteria used. A similar two-fold serial dilution of neomycin (Sigma) (0.1 mg/mL) was used as a positive control against each bacterium. Water and 70% aqueous acetone were included as a negative/solvent controls. The screening was done in triplicate and repeated twice for each extract.

In assay [6] the test system is Klebsiella pneumoniae ATCC 13883. Put plainly: Antibacterial microdilution bioassay (MIC). It is filed as cell-based. Particulars: for MIC: Klebsiella pneumoniae. The procedure: as §1
In assay [7] the test system is Staphylococcus aureus ATCC 12600. The experiment in a line: Antibacterial microdilution bioassay (MIC). Particulars: for Antimicrobial MIC S.a.: n = 3. It is filed as cell-based. Here is the method:
as §1

Assay [8] concerns Bacillus subtilis ATCC 6051. The experiment in a line: Antibacterial microdilution bioassay (MIC). The note with it: for Antimicrobial MIC B.s.: n = 3. It is filed as cell-based. The procedure:
as §1

The mark [9] stands for this setting: read-out: α-Glucosidase inhibitory activity Percentage inhibition.
Where [10] appears, read: ATCC10231, read-out: Antimicrobial MIC C.a.
Where [11] appears, read: ATCC10231, n = 3, read-out: Antimicrobial MIC C.a.
Setting [12] is: pure compounds at 300 µg/mL, mean ± standard error, read-out: AChE inhibitory activity Percentage inhibition.
Where [13] appears, read: ATCC11775, n = 3, read-out: Antimicrobial MIC E.c.
Setting [14] is: ATCC13883, Klebsiella pneumonia, n = 3, read-out: Antimicrobial MIC K.p.
The mark [15] stands for this setting: ATCC12600, n = 3, read-out: Antimicrobial MIC S.a.
[16] abbreviates: ATCC6051, n = 3, read-out: Antimicrobial MIC B.s.
Where [17] appears, read: pure compounds at 300 µg/mL, mean ± standard error.

In brackets after ≈: the same amount, converted by molar mass. Read-outs that look alike come from different tables or passages of the source. Bounds are passed on as bounds.

T1 sequence (P53341 whole entry): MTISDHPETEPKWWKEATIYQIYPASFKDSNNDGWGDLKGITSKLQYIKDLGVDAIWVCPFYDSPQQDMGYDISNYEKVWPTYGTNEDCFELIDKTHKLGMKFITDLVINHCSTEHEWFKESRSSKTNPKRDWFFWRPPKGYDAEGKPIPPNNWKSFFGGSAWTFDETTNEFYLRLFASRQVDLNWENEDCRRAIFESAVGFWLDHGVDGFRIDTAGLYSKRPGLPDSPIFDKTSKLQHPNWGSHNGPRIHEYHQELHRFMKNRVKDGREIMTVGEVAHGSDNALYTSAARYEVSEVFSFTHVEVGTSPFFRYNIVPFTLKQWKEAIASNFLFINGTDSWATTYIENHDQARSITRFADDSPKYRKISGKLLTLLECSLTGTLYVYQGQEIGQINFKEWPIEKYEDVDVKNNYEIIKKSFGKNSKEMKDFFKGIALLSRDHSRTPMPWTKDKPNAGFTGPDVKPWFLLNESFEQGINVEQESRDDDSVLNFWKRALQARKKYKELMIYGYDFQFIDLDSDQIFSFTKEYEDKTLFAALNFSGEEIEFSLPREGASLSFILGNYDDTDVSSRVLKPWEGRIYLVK
T3 sequence (O42275 24-633): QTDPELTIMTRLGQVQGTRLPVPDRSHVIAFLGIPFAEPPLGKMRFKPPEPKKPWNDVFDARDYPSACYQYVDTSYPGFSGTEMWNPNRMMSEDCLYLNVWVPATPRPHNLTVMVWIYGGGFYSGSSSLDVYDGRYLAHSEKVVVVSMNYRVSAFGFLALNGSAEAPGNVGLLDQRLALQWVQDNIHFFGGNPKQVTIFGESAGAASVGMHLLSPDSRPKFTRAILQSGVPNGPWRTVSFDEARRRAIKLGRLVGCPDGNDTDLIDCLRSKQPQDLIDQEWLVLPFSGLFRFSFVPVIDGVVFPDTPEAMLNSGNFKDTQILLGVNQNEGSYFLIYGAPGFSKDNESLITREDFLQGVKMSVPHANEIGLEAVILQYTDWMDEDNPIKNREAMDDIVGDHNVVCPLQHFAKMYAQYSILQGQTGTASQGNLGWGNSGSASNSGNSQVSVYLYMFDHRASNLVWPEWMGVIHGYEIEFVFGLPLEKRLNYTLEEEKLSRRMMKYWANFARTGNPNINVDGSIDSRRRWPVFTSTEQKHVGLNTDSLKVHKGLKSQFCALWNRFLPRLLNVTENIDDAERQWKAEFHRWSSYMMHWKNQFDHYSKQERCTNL

With `C[C@H]1O[C@H](O[C@H]2[C@H](O)[C@@H](O)[C@@H](O[C@H]3[C@H](O)[C@@H](O)C(O)O[C@@H]3CO)O[C@@H]2CO)[C@H](O)[C@@H](O)[C@@H]1N[C@H]1C=C(CO)[C@@H](O)[C@H](O)[C@H]1O` (stereo partly shown) [Acarbose, acarbose, reference compound], the inhibition at 250 µg/mL in assay [1] (setting [9]) worked out at 83.6 ± 2.6%.

As to `C[C@@H]1[C@H](O)[C@@H](C)/C=C/C=C/C=C/C=C/C=C/C=C/C=C/[C@H](O[C@@H]2O[C@H](C)[C@@H](O)[C@H](N)[C@@H]2O)C[C@@H]2O[C@](O)(C[C@@H](O)C[C@@H](O)[C@H](O)CC[C@@H](O)C[C@@H](O)CC(=O)O[C@H]1C)C[C@H](O)[C@H]2C(=O)O` [Amphotericin B, amphotericin B, reference compound], in assay [2] (setting [10]), the MIC (usually the least concentration at which growth counts as inhibited) was found to be 9.77 µg/mL (≈ 10.6 µM).

On to `CC1OC(Oc2c(-c3cc(O)c(O)c(O)c3)oc3cc(O)cc(O)c3c2=O)C(O)C(O)C1O` (stereo not shown) [Myricetrin-3-O-rhamnoside (1), Myricetrin-3-O-rhamnoside], for which the MIC in assay [2] (setting [10]) worked out at 250 µg/mL (≈ 538 µM); in assay [5] (ATCC11775, read-out: Antimicrobial MIC E.c.), 250 µg/mL (≈ 538 µM); in assay [6] (ATCC13883, read-out: Antimicrobial MIC K.p.), 250 µg/mL (≈ 538 µM); in assay [7] (ATCC12600, read-out: Antimicrobial MIC S.a.) it was 250 µg/mL (≈ 538 µM); in assay [8] (ATCC6051, read-out: Antimicrobial MIC B.s.), 250 µg/mL (≈ 538 µM). The inhibition at 25 µg/mL in assay [3] was below 20%. The IC50 (as a rule, the concentration that gives 50% inhibition) in assay [4] was 140 µM; in assay [1], 170 µM. In addition, the inhibition at 300 µg/mL in assay [4] (read-out: AChE inhibitory activity Percentage inhibition) was determined as 54.3 ± 1.1%; in assay [1] (setting [9]), 89.1 ± 5.3%.

Turning to `O=c1c(O)c(-c2ccc(O)c(O)c2)oc2cc(O)cc(O)c12` [Quercetin (3), 3,3', 4',5,7-pentahydroxyflavone], the MIC was 20 µg/mL (≈ 66.2 µM) in assay [2] (setting [11]); above 250 µg/mL in assay [5] (setting [13]); 250 µg/mL (≈ 827 µM) in assay [6] (setting [14]); above 250 µg/mL in assay [7] (setting [15]); 30 µg/mL (≈ 99.3 µM) in assay [8] (setting [16]). Besides, the results for the inhibition at 300 µg/mL in assay [4] (setting [12]) and in assay [1] (setting [9]) were 56.6 ± 0.3% and 67.1 ± 4.2%, respectively.

In the case of `O=C(/C=C/c1ccc(O)cc1)NCCc1c[nH]c2ccc(O)cc12` [Trans-N-(p-coumaroyl) serotonin (4), (E)-N-(4-hydroxycinnamoyl)-5-hydroxytryptamine], the MIC in assay [2] (setting [11]) is 130 µg/mL (≈ 403 µM); in assay [5] (setting [13]) it was 250 µg/mL (≈ 776 µM); in assay [6] (setting [14]) it was 250 µg/mL (≈ 776 µM); in assay [7] (setting [15]), 250 µg/mL (≈ 776 µM); in assay [8] (setting [16]), 250 µg/mL (≈ 776 µM). In addition, the concentration for half-maximal inhibition (IC50) was 46.5 µM in assay [4] (mean ± standard error, read-out: AChE inhibitory activity IC50 (converted)) and 16.4 µM in assay [1]. Further, the inhibition at 300 µg/mL was 72.6 ± 4.9% in assay [4] (setting [12]); 70 to 100% in assay [4] (pure compounds at 300 µg/mL, read-out: AChE inhibitory activity level); 97.3 ± 3.2% in assay [1] (setting [9]).

For “Quercetin-3-O-rhamnoside [Quercetin-3-O-rhamnoside (2)]”, the “Antimicrobial MIC C.a.” value in assay [2] (n = 3) worked out at 250 µg/mL. Further, in assay [4] (setting [17]), the “AChE inhibitory activity Percentage inhibition” value is on record as 53.3 ± 1.0 b,c. Besides, the “α-Glucosidase inhibitory activity Percentage inhibition” value in assay [1] (setting [17]) amounted to 47.0 ± 1.7 a. The “Antimicrobial MIC E.c.” value in assay [5] was above 250 µg/mL. The “Antimicrobial MIC K.p.” value in assay [6] (Klebsiella pneumonia, n = 3) is above 250 µg/mL. For the same compound, the “Antimicrobial MIC S.a.” value in assay [7] was above 250 µg/mL. The “Antimicrobial MIC B.s.” value in assay [8] worked out at 130 µg/mL.

Turning to neomycin [reference compound], the “Antimicrobial MIC E.c.” value in assay [5] was 0.8 µg/mL. Moreover, the “Antimicrobial MIC K.p.” value in assay [6] (Klebsiella pneumonia, n = 3) was 0.8 µg/mL. Besides, the “Antimicrobial MIC S.a.” value in assay [7] amounted to 1.6 µg/mL. The “Antimicrobial MIC B.s.” value in assay [8] came to 1.6 µg/mL.
